From ChEMBL document CHEMBL4825693, “Discovery of novel N-sulfonamide-tetrahydroisoquinolines as potent retinoic acid receptor-related orphan receptor γt agonists” (Eur J Med Chem, 2021)
pEC50, pIC50: −log10 of the molar value.

How the values were obtained:
[1] = molecular target: T1, Nuclear receptor ROR-gamma (Homo sapiens, UniProt P51449); experiment: Agonist activity at human RORgammat LBD expressed in HEK293T cells incubated for 16 to 20 hrs by Gal4-luciferase reporter gene assay; assay type: cell-based
T1 sequence (P51449 whole entry): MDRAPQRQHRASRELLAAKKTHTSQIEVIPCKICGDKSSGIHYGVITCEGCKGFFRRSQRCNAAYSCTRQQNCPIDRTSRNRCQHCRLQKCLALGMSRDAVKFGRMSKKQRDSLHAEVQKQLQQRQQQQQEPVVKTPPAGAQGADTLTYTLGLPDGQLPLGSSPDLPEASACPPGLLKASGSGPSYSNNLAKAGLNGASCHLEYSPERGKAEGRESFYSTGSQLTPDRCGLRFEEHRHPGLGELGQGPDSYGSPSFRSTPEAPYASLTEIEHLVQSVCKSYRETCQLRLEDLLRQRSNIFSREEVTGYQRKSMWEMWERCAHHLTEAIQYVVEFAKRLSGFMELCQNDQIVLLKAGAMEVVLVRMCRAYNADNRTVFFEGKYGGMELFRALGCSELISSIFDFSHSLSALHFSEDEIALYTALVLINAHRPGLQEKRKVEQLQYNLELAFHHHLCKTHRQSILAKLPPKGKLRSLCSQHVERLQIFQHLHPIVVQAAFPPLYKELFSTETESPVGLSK

[2] = molecular target: T1, Nuclear receptor ROR-gamma; experiment: Agonist activity at europium-labeled human RORgammat LBD assessed as induction of XL665-labeled co-activator SRC1 recruitment incubated for 1 hr by dual FRET assay
[3] = molecular target: T2, Nuclear receptor ROR-gamma (Mus musculus) (UniProt P51450); experiment: Agonist activity at RORgammat in C57 mouse CD4+ T cells assessed as induction of Th17 cells differentiation by measuring increase in IL17 production measured after 4 days by flow cytometry analysis relative to control; assay type: cell-based; conditions: CD4+ve Th, filed as agonist, time 4.0 day
T2 sequence (whole entry): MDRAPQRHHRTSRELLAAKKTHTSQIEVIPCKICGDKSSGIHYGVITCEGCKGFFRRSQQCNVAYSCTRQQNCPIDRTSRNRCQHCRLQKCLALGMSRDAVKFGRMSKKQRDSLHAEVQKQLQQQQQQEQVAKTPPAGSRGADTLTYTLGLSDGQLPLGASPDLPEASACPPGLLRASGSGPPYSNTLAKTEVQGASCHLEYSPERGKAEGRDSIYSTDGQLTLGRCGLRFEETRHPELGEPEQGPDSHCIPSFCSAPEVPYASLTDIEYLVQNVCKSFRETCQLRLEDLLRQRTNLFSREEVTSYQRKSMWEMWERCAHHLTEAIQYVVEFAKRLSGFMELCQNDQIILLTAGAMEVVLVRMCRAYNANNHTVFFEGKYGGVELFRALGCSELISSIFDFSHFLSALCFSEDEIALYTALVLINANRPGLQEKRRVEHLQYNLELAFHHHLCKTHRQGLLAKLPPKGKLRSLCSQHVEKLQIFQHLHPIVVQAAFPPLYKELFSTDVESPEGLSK

[4] = molecular target: T3, Nuclear receptor ROR-gamma (Homo sapiens) (UniProt P51449); experiment: Inverse agonist activity at europium-labeled human RORgammat LBD assessed as inhibition of XL665-labeled co-activator SRC1 recruitment incubated for 1 hr by dual FRET assay relative to control; conditions: concentration not given here
T3 sequence (whole entry): T1 sequence (P51449 whole entry)

[5] = molecular target: T1, Nuclear receptor ROR-gamma; experiment: Inverse agonist activity at europium-labeled human RORgammat LBD assessed as inhibition of XL665-labeled co-activator SRC1 recruitment incubated for 1 hr by dual FRET assay

SMILES	pEC50 [2]	further results
CC(=O)N1CCN(c2ccc3c(c2)CCN(S(=O)(=O)N(C)Cc2cccc(F)c2)C3)CC1	6.26	–
CC(=O)N1CCN(c2ccc3c(c2)CCN(S(=O)(=O)N(C)Cc2ccccn2)C3)CC1	4.91	–
CC(=O)N1CCN(c2ccc3c(c2)CCN(S(=O)(=O)N(C)Cc2ccccc2C)C3)CC1	6.66	–
CC(=O)N1CCN(c2ccc3c(c2)CCN(S(=O)(=O)N(C)CCCc2ccccc2)C3)CC1	6.24	–
CC(=O)N1CCN(c2ccc3c(c2)CCN(S(=O)(=O)N(C)Cc2ccc(C(F)(F)F)cc2)C3)CC1	–	inhibition [4]: 25.8%; pEC50 [5]: 5.70
CC(=O)N1CCN(c2ccc3c(c2)CCN(S(=O)(=O)N(C)CCc2ccccc2)C3)CC1	5.65	–
CC(=O)N1CCN(c2ccc3c(c2)CCCN3S(=O)(=O)N(C)Cc2ccccc2Cl)CC1	–	pIC50 [5]: 6.78
CC(=O)N1CCN(c2ccc3c(c2)CCN(S(=O)(=O)N(C)Cc2c(F)cccc2Cl)C3)[C@H](C)C1	7.64	–
CC(=O)N1CCN(c2ccc3c(c2)CCN(S(=O)(=O)N(C)Cc2cccc(C)c2)C3)CC1	6.67	–
CC(=O)N1CCN(c2ccc3c(c2)CCN(S(=O)(=O)N(C)Cc2ccccc2F)C3)CC1	6.45	–
CC(=O)N1CCN(c2ccc3c(c2)CCN(S(=O)(=O)N(C)Cc2c(F)cccc2Cl)C3)CC1	7.68	pEC50 [1]: 6.72; max activation [3]: 167%

Continued, in another order:

pEC50 [2]	SMILES	further results
6.01	CC(=O)N1CCN(c2ccc3c(c2)CCN(S(=O)(=O)N(C)Cc2ccccc2Cl)C3)CC1	pEC50 [1]: 6.13; max activation [3]: 93%
6.25	CC(=O)N1CCN(c2ccc3c(c2)CCN(S(=O)(=O)N(C)Cc2ccccc2)C3)CC1	–
5.20	CC(=O)N1CCN(c2ccc3c(c2)CCN(S(=O)(=O)N(C)c2nccc(C(F)(F)F)n2)C3)CC1	–
5.99	CC(=O)N1CCN(c2ccc3c(c2)CCN(S(=O)(=O)N(C)Cc2ccc(F)cc2)C3)CC1	–
6.83	CC(=O)N1CCN(c2ccc3c(c2)CCN(S(=O)(=O)N(C)Cc2cc(F)ccc2F)C3)CC1	–
6.86	CC(=O)N1CCN(c2ccc3c(c2)CCN(S(=O)(=O)N(C)Cc2cccc(Cl)c2)C3)CC1	–
